Patent US20180319810A1, “SUBSTITUTED BRIDGED UREA ANALOGS AS SIRTUIN MODULATORS” (GlaxoSmithKline Intellectual Property (No.2) Limited, priority 2014, published 2018)

The compounds below were run against T1, SIRT1 (Homo sapiens, UniProt Q96EB6) (assay: Trp mass spectrometry assay of SIRT1 activation). Settings: Trp peptide Ac-R-H-K-K(Ac)-W-NH2 0.5 μM, 120 μM βNAD+, 10 nM SIRT1, 25 min, 25° C.
T1 sequence (Q96EB6 1-747): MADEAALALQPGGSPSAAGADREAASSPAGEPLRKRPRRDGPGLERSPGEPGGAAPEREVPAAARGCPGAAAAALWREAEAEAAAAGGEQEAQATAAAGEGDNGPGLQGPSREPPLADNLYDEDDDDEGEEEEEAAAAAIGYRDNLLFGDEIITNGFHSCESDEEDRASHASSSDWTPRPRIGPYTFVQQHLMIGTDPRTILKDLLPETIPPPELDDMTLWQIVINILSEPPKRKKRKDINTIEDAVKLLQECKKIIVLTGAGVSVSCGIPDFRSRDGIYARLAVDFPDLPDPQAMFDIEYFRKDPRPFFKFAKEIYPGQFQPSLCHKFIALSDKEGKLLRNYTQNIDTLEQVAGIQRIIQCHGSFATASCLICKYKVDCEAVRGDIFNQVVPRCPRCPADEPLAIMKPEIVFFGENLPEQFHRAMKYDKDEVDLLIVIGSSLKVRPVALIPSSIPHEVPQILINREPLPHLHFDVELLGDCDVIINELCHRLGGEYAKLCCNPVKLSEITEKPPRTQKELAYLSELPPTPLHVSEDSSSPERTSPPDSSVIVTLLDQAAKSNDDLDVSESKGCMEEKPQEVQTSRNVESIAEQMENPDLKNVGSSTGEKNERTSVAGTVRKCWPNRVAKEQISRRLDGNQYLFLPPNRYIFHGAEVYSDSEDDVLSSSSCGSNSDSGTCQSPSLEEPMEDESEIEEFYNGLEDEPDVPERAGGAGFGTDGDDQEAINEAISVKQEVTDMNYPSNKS
Assay type: biochemical

SMILES | TRP Activity (EC1.5, concentration of compound required to increase SIRT1 activity by 50% over control) | TRP MAX RESP (percent maximum fold activation relative to control)
Cc1nc(-c2cccc(C(F)(F)F)c2)nc2c1N1CCC[C@@H](C1)N2C(=O)Nc1nccc(OC[C@@H](O)CO)n1 [Example 112, (9S)—N-(4-((S)-2,3-dihydroxypropoxy)pyrimidin-2-yl)-4-methyl-2-(3-(trifluoromethyl)phenyl)-8,9-dihydro-6H-5,9-methanopyrimido[4,5-b][1,4]diazocine-10(7H)-carboxamide] | A (EC1.5<1 μM) | A (Fold activation ≥150%)
O=C(Nc1ccnc(OC[C@@H](O)CO)n1)N1c2nc(-c3cccc(C(F)(F)F)c3)ncc2N2CCC[C@H]1C2 [Example 79, (9S)—N-(2-((S)-2,3-dihydroxypropoxy)pyrimidin-4-yl)-2-(3-(trifluoromethyl)phenyl)-8,9-dihydro-6H-5,9-methanopyrimido[4,5-b][1,4]diazocine-10(7H)-carboxamide] | A (EC1.5<1 μM) | A (Fold activation ≥150%)
O=C(Nc1cnnc(OC[C@H](O)CO)c1)N1c2nc(-c3cccc(C(F)(F)F)c3)ncc2N2CC[C@H]1C2 [Example 44, (8S)—N-(6-((R)-2,3-dihydroxypropoxy)pyridazin-4-yl)-2-(3-(trifluoromethyl)phenyl)-7,8-dihydro-5,8-methanopyrimido[4,5-b][1,4]diazepine-9(6H)-carboxamide] | B (EC1.5 1-25 μM) | A (Fold activation ≥150%)
Cc1ccc(-c2nc(C)c3c(n2)N(C(=O)Nc2ccccn2)[C@H]2CCN3C2)cn1 [Example 12, (8S)-4-methyl-2-(6-methylpyridin-3-yl)-N-(pyridin-2-yl)-7,8-dihydro-5,8-methanopyrimido[4,5-b][1,4]diazepine-9(6H)-carboxamide] | B (EC1.5 1-25 μM) | A (Fold activation ≥150%)
O=C(Nc1ccnc(OC[C@H](O)CO)c1)N1c2nc(-c3cccc(C(F)(F)F)c3)ncc2N2CCC[C@H]1C2 [Example 90, (9S)—N-(2-((R)-2,3-dihydroxypropoxy)pyridin-4-yl)-2-(3-(trifluoromethyl)phenyl)-8,9-dihydro-6H-5,9-methanopyrimido[4,5-b][1,4]diazocine-10(7H)-carboxamide] | A (EC1.5<1 μM) | A (Fold activation ≥150%)
O=C(Nc1cnnc(OC[C@@H](O)CO)c1)N1c2nc(-c3cccc(C(F)(F)F)c3)ncc2N2CCC[C@H]1C2 [Example 108, (9S)—N-(6-((S)-2,3-dihydroxypropoxy)pyridazin-4-yl)-2-(3-(trifluoromethyl)phenyl)-8,9-dihydro-6H-5,9-methanopyrimido[4,5-b][1,4]diazocine-10(7H)-carboxamide] | A (EC1.5<1 μM) | A (Fold activation ≥150%)
O=C(NCC(F)(F)F)c1ncc2c(n1)N(C(=O)Nc1ccccn1)[C@H]1CCCN2C1 [Example 62, (9S)—N10-(pyridin-2-yl)-N2-(2,2,2-trifluoroethyl)-8,9-dihydro-6H-5,9-methanopyrimido[4,5-b][1,4]diazocine-2,10(7H)-dicarboxamide] | A (EC1.5<1 μM) | A (Fold activation ≥150%)
Cc1ccc(-c2nc(C)c3c(n2)N(C(=O)Nc2cccnc2)[C@H]2CCN3C2)cn1 [Example 7, (8S)-4-methyl-2-(6-methylpyridin-3-yl)-N-(pyridin-3-yl)-7,8-dihydro-5,8-methanopyrimido[4,5-b][1,4]diazepine-9(6H)-carboxamide] | B (EC1.5 1-25 μM) | A (Fold activation ≥150%)
C[C@@H](NC(=O)c1ncc2c(n1)N(C(=O)Nc1cc(OC[C@@H](O)CO)ncn1)[C@H]1CCCN2C1)C(F)(F)F [Example 75, (9S)—N10-(6-((S)-2,3-dihydroxypropoxy)pyrimidin-4-yl)-N2-((R)-1,1,1-trifluoropropan-2-yl)-8,9-dihydro-6H-5,9-methanopyrimido[4,5-b][1,4]diazocine-2,10(7H)-dicarboxamide] | B (EC1.5 1-25 μM) | A (Fold activation ≥150%)
Cc1nc(C(=O)N[C@H](C)C(F)(F)F)nc2c1N1CC[C@@H](C1)N2C(=O)Nc1cc(OC[C@H](O)CO)ccn1 [Example 1, (8S)—N9-(4-((R)-2,3-dihydroxypropoxy)pyridin-2-yl)-4-methyl-N2-((R)-1,1,1-trifluoropropan-2-yl)-7,8-dihydro-5,8-methanopyrimido[4,5-b][1,4]diazepine-2,9(6H)-dicarboxamide] | A (EC1.5<1 μM) | A (Fold activation ≥150%)

Further lines, results first:

TRP Activity (EC1.5, concentration of compound required to increase SIRT1 activity by 50% over control) | TRP MAX RESP (percent maximum fold activation relative to control) | SMILES
B (EC1.5 1-25 μM) | A (Fold activation ≥150%) | O=C(Nc1nccc(OC[C@H](O)CO)n1)N1c2nc(-c3cccc(C(F)(F)F)c3)ncc2N2CC[C@H]1C2 [Example 26, (8S)—N-(4-((R)-2,3-dihydroxypropoxy)pyrimidin-2-yl)-2-(3-(trifluoromethyl)phenyl)-7,8-dihydro-5,8-methanopyrimido[4,5-b][1,4]diazepine-9(6H)-carboxamide]
A (EC1.5<1 μM) | A (Fold activation ≥150%) | O=C(Nc1ccnc(OC[C@H](O)CO)n1)N1c2nc(-c3cccc(C(F)(F)F)c3)ncc2N2CCC[C@H]1C2 [Example 88, (9S)—N-(2-((R)-2,3-dihydroxypropoxy)pyrimidin-4-yl)-2-(3-(trifluoromethyl)phenyl)-8,9-dihydro-6H-5,9-methanopyrimido[4,5-b][1,4]diazocine-10(7H)-carboxamide]
A (EC1.5<1 μM) | A (Fold activation ≥150%) | O=C(Nc1cccc(OC[C@H](O)CO)n1)N1c2nc(-c3cccc(C(F)(F)F)c3)ncc2N2CC[C@H]1C2 [Example 22, (8S)—N-(6-((R)-2,3-dihydroxypropoxy)pyridin-2-yl)-2-(3-(trifluoromethyl)phenyl)-7,8-dihydro-5,8-methanopyrimido[4,5-b][1,4]diazepine-9(6H)-carboxamide]
A (EC1.5<1 μM) | A (Fold activation ≥150%) | O=C(Nc1ccnc(OC[C@@H](O)CO)c1)N1c2nc(-c3cccc(C(F)(F)F)c3)ncc2N2CC[C@H]1C2 [Example 32, (8S)—N-(2-((S)-2,3-dihydroxypropoxy)pyridin-4-yl)-2-(3-(trifluoromethyl)phenyl)-7,8-dihydro-5,8-methanopyrimido[4,5-b][1,4]diazepine-9(6H)-carboxamide]
